Assay [1] has as its system K562. The assay can be described thus: cells. To be noted: Homo sapiens, K562, 48 h.
A further assay concerns HepG2. The assay can be described thus: cells. To be noted: Homo sapiens, HepG2, 48 h.
The next assay deals with MCF7. The assay is described as follows: cells. To be noted: Homo sapiens, MCF7, 48 h.
Assay [2] has as its target Proto-oncogene tyrosine-protein kinase Src (Homo sapiens) (UniProt P12931). The assay is described as follows: Inhibition of SRC at 50 uM after 1 hr.
Assay [3] has as its target Vascular endothelial growth factor receptor 2 (Homo sapiens) (UniProt P35968). The assay is described as follows: Inhibition of VEGFR2 at 50 uM after 1 hr.
The test system of assay [4] is K562. The assay is described as follows: Ratio of imatinib IC50 to compound IC50 for human K562 cells after 48 hrs by MTT assay. It counts as functional.
Assay [5] can be described thus: Growth inhibition of A375M cells. To be noted: Homo sapiens.
Another assay has as its system Malme-3M. The assay can be described thus: cells. To be noted: Homo sapiens.
The test system of the next assay is SK-MEL-28. The assay can be described thus: Growth inhibition of SK-MEL-28 cells. To be noted: Homo sapiens.
Assay [6] has as its target DNA topoisomerase 2-alpha (Homo sapiens) (UniProt P11388). The assay can be described thus: Inhibition of human topoisomerase 2 at 1 to 50 uM for 40 mins using ethidium bromide by decatenation assay.
The target in assay [7] is Vascular endothelial growth factor receptor 2 (Homo sapiens) (UniProt P35968). The assay is described as follows: Inhibition of VEGFR2 in human K562 cells assessed as reduction in activated ERK1/2 levels at 10 uM by Western blot analysis. It counts as cell-based. Background: Immunoblotting shows a protein as a band on a membrane.
Assay [8] concerns the target Proto-oncogene tyrosine-protein kinase Src (Homo sapiens) (UniProt P12931). The assay is described as follows: Inhibition of SRC in human K562 cells assessed as reduction in activated ERK1/2 levels at 10 uM by Western blot analysis. The assay is classed as cell-based. To be noted: TDE = time-dependent effect.

The source made the active and inactive calls. No cut-off for these calls is given here.

Chain of Proto-oncogene tyrosine-protein kinase Src (Homo sapiens) (P12931 2-536 limits assumed): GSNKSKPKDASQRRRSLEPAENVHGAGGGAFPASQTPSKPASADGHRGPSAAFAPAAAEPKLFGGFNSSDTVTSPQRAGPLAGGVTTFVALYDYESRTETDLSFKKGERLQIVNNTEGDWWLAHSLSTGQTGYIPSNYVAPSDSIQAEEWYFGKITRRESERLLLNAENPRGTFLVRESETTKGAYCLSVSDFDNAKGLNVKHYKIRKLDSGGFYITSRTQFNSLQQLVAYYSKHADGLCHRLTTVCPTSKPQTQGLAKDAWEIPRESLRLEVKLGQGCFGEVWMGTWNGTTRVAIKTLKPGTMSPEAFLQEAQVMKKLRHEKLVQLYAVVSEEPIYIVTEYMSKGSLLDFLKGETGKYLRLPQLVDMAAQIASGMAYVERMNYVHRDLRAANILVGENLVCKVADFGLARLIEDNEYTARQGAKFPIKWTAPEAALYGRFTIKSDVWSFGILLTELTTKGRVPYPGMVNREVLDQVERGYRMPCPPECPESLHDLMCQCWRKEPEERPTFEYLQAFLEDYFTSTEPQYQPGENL
Chain of Vascular endothelial growth factor receptor 2 (Homo sapiens) (P35968 whole entry): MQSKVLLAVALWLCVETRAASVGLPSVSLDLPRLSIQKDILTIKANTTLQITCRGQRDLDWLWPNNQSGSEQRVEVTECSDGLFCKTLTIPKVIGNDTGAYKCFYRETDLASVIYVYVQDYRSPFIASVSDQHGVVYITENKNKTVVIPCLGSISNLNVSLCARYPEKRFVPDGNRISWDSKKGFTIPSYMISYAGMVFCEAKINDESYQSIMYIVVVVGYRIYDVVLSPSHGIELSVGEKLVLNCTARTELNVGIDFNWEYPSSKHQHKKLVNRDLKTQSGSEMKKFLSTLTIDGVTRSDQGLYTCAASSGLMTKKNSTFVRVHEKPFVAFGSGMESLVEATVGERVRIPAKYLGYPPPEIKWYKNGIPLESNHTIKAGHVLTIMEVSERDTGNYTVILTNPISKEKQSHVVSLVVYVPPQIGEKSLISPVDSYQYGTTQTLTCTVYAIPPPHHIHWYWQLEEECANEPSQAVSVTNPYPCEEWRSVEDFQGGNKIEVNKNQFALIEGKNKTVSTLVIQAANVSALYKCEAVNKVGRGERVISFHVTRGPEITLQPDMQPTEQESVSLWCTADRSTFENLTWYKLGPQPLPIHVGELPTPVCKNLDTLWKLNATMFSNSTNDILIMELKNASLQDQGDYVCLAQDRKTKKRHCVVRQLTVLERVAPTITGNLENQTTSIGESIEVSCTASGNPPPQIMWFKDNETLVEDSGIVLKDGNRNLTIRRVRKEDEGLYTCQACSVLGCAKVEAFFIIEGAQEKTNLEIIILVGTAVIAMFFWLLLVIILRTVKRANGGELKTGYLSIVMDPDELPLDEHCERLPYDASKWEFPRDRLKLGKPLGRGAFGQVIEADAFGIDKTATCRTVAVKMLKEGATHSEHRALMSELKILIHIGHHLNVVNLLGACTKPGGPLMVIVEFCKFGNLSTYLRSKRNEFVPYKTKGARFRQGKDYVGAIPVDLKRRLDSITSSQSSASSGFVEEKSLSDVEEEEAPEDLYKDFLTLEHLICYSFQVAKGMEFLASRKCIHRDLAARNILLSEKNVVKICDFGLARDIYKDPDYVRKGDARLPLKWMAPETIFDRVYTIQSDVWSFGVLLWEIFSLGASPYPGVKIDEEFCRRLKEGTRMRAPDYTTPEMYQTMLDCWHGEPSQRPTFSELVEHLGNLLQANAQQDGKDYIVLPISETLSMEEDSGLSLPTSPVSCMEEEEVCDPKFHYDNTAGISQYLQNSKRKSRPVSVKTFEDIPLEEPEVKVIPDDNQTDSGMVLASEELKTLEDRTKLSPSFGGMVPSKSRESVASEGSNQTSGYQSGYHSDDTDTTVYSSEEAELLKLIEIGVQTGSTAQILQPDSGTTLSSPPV
Chain of DNA topoisomerase 2-alpha (Homo sapiens) (P11388 whole entry): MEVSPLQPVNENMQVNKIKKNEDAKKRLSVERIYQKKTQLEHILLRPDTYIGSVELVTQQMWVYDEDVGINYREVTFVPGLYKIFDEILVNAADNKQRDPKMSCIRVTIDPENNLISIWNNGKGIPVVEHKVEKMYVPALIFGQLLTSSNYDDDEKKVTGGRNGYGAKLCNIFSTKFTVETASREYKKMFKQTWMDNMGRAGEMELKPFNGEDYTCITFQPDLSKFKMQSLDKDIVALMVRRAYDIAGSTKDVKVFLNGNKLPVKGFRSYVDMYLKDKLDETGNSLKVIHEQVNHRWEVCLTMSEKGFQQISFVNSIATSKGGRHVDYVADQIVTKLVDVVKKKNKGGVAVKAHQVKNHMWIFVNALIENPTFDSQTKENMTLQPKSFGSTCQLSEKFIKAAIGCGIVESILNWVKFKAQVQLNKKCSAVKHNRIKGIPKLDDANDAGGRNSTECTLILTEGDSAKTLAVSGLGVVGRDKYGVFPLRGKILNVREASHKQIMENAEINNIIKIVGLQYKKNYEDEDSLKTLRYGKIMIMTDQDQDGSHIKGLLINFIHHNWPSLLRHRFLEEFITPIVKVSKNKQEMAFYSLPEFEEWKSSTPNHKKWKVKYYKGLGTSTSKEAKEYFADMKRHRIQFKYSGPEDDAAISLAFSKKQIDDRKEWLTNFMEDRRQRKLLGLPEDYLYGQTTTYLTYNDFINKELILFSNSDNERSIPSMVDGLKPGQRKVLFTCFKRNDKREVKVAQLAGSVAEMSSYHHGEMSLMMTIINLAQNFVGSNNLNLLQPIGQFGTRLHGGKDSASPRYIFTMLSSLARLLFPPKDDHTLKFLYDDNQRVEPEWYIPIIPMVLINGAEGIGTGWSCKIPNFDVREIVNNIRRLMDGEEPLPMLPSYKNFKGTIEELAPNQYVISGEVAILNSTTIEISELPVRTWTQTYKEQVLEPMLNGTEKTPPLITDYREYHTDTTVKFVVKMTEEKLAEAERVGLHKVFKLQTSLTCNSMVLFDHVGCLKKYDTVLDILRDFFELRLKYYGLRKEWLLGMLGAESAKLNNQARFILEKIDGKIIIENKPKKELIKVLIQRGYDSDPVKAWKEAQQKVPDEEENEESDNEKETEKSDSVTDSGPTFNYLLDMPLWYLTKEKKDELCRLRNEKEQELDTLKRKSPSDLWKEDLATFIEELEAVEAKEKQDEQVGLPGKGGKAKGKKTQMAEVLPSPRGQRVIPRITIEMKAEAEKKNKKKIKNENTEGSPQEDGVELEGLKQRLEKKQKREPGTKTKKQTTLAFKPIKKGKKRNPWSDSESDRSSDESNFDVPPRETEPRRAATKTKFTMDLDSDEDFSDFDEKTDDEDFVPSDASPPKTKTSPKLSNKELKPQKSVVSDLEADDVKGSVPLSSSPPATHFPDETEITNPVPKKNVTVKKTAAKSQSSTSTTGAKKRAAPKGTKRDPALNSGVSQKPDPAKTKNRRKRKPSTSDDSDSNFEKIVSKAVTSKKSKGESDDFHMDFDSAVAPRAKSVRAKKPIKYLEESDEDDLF
Description for Malme-3M: Growth inhibition of MALME-3M cells

What is called IC50 is the concentration that gives 50% inhibition. With `COc1ccc2nc3cc(Cl)ccc3c(Nc3ccccc3OC)c2c1`, the IC50 in the assay with K562 [1] was 5.4 µM; in the assay on HepG2, > 50 µM; with MCF7, > 50 µM.
For orientation: inhibition means the change of the read-out against control, counted positive when it falls. On to `CN[C@@H]1C[C@H]2O[C@@](C)([C@@H]1OC)n1c3ccccc3c3c4c(c5c6ccccc6n2c5c31)C(=O)NC4`, for which, in assay [2], the inhibition is 99.4%.
`COc1ccc2nc3cc(Cl)ccc3c(Nc3ccc(OC(F)(F)F)cc3)c2c1`: the IC50 with K562 [1] amounted to 9.7 µM; in the assay with HepG2, 10.2 µM; in the assay on MCF7 it was 18.9 µM.
For the compound `COc1ccc2nc3cc(Cl)ccc3c(Nc3cccc(N)n3)c2c1`, the values for the inhibition in [3] and in assay [2] were 3.77% and 6.12%, respectively. Also, the half-inhibitory concentration (IC50) came out at 12 µM in the assay on K562 [1], 32.7 µM in the assay on HepG2 and 17.6 µM in the assay on MCF7.
On to `COc1ccc2nc3cc(Cl)ccc3c(Nc3cccc(O)c3)c2c1`, for which the IC50 in the assay on K562 [1] is 5.5 µM; in the assay with HepG2, 9.6 µM; with MCF7, 13.2 µM.
In the same order, the values of `CCOc1ccccc1Nc1c2ccc(Cl)cc2nc2ccc(OC)cc12` are 9 µM, 27.9 µM and > 50 µM.
Take `COc1ccc(Nc2c3ccc(Cl)cc3nc3ccc(OC)cc23)cc1`: in the assay on K562 [4], the “Ratio IC50” value amounted to 2.5. For the same compound, the figures for the IC50 in the assay on K562 [1], in the assay on HepG2 and with MCF7 were 2.2 µM, 6.3 µM and > 50 µM, respectively.
Take `Cn1c(Nc2ccc(C(F)(F)F)cc2)nc2cc(Oc3ccnc(-c4ncc(C(F)(F)F)[nH]4)c3)ccc21` [RAF-265]: the IC50 (in [5]; with Malme-3M; in the assay with SK-MEL-28) was 0.14 µM in each case.
Turning to `COc1ccc2nc3cc(Cl)ccc3c(Nc3ccccc3F)c2c1`, the figures for the IC50 with K562 [1], with HepG2 and in the assay with MCF7 were 13.5 µM, 46.1 µM and > 50 µM, respectively.
On to `COc1ccc2nc3cc(Cl)ccc3c(NCCN)c2c1`, for which the values for the IC50 in the assay on K562 [1], in the assay on HepG2 and in the assay on MCF7 were 7 µM, 6 µM and 9.3 µM, respectively.
For `COc1ccc2nc3cc(Cl)ccc3c(Nc3ccncc3)c2c1`, in that order: 7.3 µM, 4.1 µM and > 50 µM.
On to `COc1ccc2nc3cc(Cl)ccc3c(Nc3ccc(C(=O)O)c(O)c3)c2c1`, for which the inhibition amounted to 5.4% in assay [3] and 2.8% in assay [2]. Further, the IC50 in the assay with K562 [1] was 18.7 µM; in the assay with HepG2, > 50 µM; with MCF7, > 50 µM. Besides, the inhibition result in [6] is “inactive”.
On to `COc1cc2c(c(OC)c1OC)-c1ccc(OC)c(=O)cc1[C@@H](NC(C)=O)CC2` [COLCHICINE], for which the IC50 in the assay with HepG2 and with MCF7 was 1.9 µM in each case.
Take `Cc1ccc(NC(=O)c2ccc(CN3CCN(C)CC3)cc2)cc1Nc1nccc(-c2cccnc2)n1` [IMATINIB]: the IC50 with K562 [1] was 5.4 µM.
For `COc1ccc2nc3cc(Cl)ccc3c(Nc3cccc(NC(C)=O)c3)c2c1`, the IC50 was 21.3 µM in the assay on K562 [1], 36.8 µM with HepG2 and > 50 µM with MCF7.
For `COc1ccc2nc3cc(Cl)ccc3c(Nc3ccccc3Cl)c2c1`, in that order: 23.8 µM, 30.2 µM and > 50 µM.
Take `COc1ccc2nc3cc(Cl)ccc3c(Nc3cccnc3N)c2c1`: the IC50 amounted to 11.7 µM in the assay with K562 [1], 10.6 µM in the assay on HepG2 and 23.2 µM in the assay on MCF7.
With `COc1ccc2nc3cc(Cl)ccc3c(Nc3ccc(C(F)(F)F)cc3)c2c1`, the figures for the half-inhibitory concentration (IC50) with K562 [1], with HepG2 and in the assay on MCF7 were 10.8 µM, > 50 µM and > 50 µM, respectively.
`CCOc1ccc(Nc2c3ccc(Cl)cc3nc3ccc(OC)cc23)cc1`: the IC50 worked out at 3.2 µM with K562 [1], 7.4 µM in the assay on HepG2 and 41.6 µM in the assay on MCF7.
For `COc1ccc2nc3cc(Cl)ccc3c(Nc3ccccc3O)c2c1`, in that order: 4.9 µM, 11.4 µM and > 50 µM.
On to `COc1ccc2nc3cc(Cl)ccc3c(NCc3ccccc3OC)c2c1`, for which the values for the inhibition in assay [3], in assay [2] and in [8] were 44%, 8.02% and “tde”, respectively. For the same compound, the IC50 was found to be 5 µM in the assay with K562 [1], 4.2 µM in the assay on HepG2 and 23.8 µM in the assay on MCF7. Further, the inhibition entry in assay [6] is “inactive”. For the same compound, the inhibition result in assay [7] is “Active”.
On to `COc1ccc2nc3cc(Cl)ccc3c(Nc3ccc(N)cc3)c2c1`, for which the IC50 in the assay with K562 [1] is 7.7 µM; in the assay on HepG2 it was 11 µM; in the assay on MCF7 it was 23.2 µM.
For the compound `COc1ccc2nc3cc(Cl)ccc3c(Nc3cc(OC)c(OC)c(OC)c3)c2c1`, the IC50 with K562 [1] is 31 µM; with HepG2, 16.8 µM; in the assay with MCF7, > 50 µM.
Consider `COc1cccc(Nc2c3ccc(Cl)cc3nc3ccc(OC)cc23)c1`, for which the IC50 in the assay on K562 [1] was 2.7 µM; in the assay with HepG2 it was 14.9 µM; in the assay with MCF7, > 50 µM.
As for `COc1ccc2nc3cc(Cl)ccc3c(Nc3ccc(C)cc3)c2c1`, the IC50 was 5.5 µM with K562 [1], 8.8 µM in the assay with HepG2 and 19.9 µM with MCF7.
